Results published in patent publication US6184388A, “Substituted aminocycloalkylpyrrolidine derivatives and cis-substituted aminocycloalkylpyrrolidine derivatives” (Daiichi Pharmaceutical Co., Ltd., priority 1995, dated 2001).
≈ marks a conversion by molar mass, not a printed value. Counter-ions that a name gives are not always drawn.

Tests used:
[1] = test system: Slc:ddy five week male mice; test: acute toxicity, intravenous, mice; type: in vivo; conditions: for acute toxicity result compared with the table above: stated in words
Description: A solution of 5-amino-7-[4-(R)-(1-aminocyclopropyl)-3-(S)-fluoro-1-pyrrolidinyl]-6-fluoro-1-[2-(S)-fluoro-1-(R)-cyclopropyl]-1,4-dihydro-8-methyl-4-oxoquinoline-3-carboxylic acid (abbreviated as cis) hydrochloride of Example 15 or 5-amino-7-[4-(R)-(1-aminocyclopropyl)-3-(R)-fluoro-1-pyrrolidinyl]-6-fluoro-1-[2-(S)-fluoro-1-(R)-cyclopropyl]-1,4-dihydro-8-methyl-4-oxoquinoline-3-carboxylic acid (abbreviated as trans) hydrochloride in distilled water for injection was administered intravenously to Slc:ddy five week male mice (five mice per group) and the symptoms are observed.

[2] = test system: Ps. maltophilia, IID-1275; test: antimicrobial activity (MIC), standard method of the Japan Society of Chemotherapy; type: cell-based; conditions: for MIC: Stenotrophomonas maltophilia, IID1275, IID-1275 (Table 5: X. maltophilia, IID-1275), read-out: minimum inhibitory concentration (MIC)
Description: (§1) Examples of the first and second aspects of the present invention are given below by way of illustration and not by way of limitation. In this regard, the antibacterial and antimicrobial activities of the compounds of interest were measured in accordance with the standard method specified by the Japan Society of Chemotherapy. The results are shown in Tables 1 to 5 as a minimum inhibitory concentration (MIC, μg/ml). Unless otherwise indicated, all percents (%) are by weight.

E. coli, NIHJ = test: as above; type: cell-based; conditions: Escherichia coli, read-out: minimum inhibitory concentration (MIC)
Description: as §1

[3] = 150 mg/kg, *: died immediately after administration, test stopped when second mouse died

SMILES | acute toxicity result compared with the table above ([1]; 150 mg/kg) | MIC [2] | other results
Cc1c(N2C[C@@H](CO)[C@@H](C3(N)CC3)C2)c(F)c(N)c2c(=O)c(C(=O)O)cn(C3CC3)c12 (relative stereo) [Example 14, 5-Amino-7-[cis-4-(1-aminocyclopropyl)-3-hydroxymethyl-1-pyrrolidinyl]-1-cyclopropyl-6-fluoro-1,4-dihydro-8-methyl-4-oxoguinoline-3-carboxylic acid] | same result |  | 
Cc1c(N2C[C@@H](F)[C@@H](C3(N)CCC3)C2)c(F)c(N)c2c(=O)c(C(=O)O)cn([C@@H]3C[C@@H]3F)c12 (single isomer, unassigned; isomer b) [Example 13] | same result |  | minimum inhibitory concentration (MIC) ([2]; IID-1275 (Table 5: X. maltophilia, IID-1275)): 0.20 µg/mL (≈ 0.444 µM)
Cc1c(N2C[C@H](F)[C@@H](C3(N)CC3)C2)c(F)c(N)c2c(=O)c(C(=O)O)cn([C@@H]3C[C@@H]3F)c12 [Example 5, 5-Amino-7-[4-(R)-(1-aminocyclopropyl)-3-(R)-fluoro-1-pyrrolidinyl]-6-fluoro-1-[2-(S)-fluoro-1-(R)-cyclopropyl]-1,4-dihydro-8-methyl-4-oxoquinoline-3-carboxylic acid hydrochloride] |  |  | Number of death ([1]; 50 mg/kg): 0/5; Number of death ([1]; 100 mg/kg, *: died immediately after administration, test stopped when second mouse died): 2/2; Number of death [1, 3]: 2/2
COc1c(N2C[C@@H](F)[C@@H](C3(N)CC3)C2)c(F)cc2c(=O)c(C(=O)O)cn([C@@H]3C[C@@H]3F)c12 [Example 12, 7-[4-(R)-(1-Aminocyclopropyl)-3-(S)-fluoro-1-pyrrolidinyl]-6-fluoro-1-[2-(S)-fluoro-1-(R)-cyclopropyl]-1,4-dihydro-8-methoxy-4-oxoguinoline-3-carboxylic acid] | same result |  | MIC (E. coli, NIHJ): ≤ 0.013 µg/mL
Cc1c(N2C[C@@H](F)[C@@H](C3(N)CC3)C2)c(F)c(N)c2c(=O)c(C(=O)O)cn([C@@H]3C[C@@H]3F)c12 [Example 15, 5-Amino-7-[4-(R)-(1-aminocyclopropyl)-3-(S)-fluoro-1-pyrrolidinyl]-6-fluoro-1-[2-(S)-fluoro-1-(R)-cycloproyl]-1,4-dihydro-8-methyl-4-oxoguinoline-3-carboxylic acid hydrochloride] |  | 0.05 µg/mL | Number of death [1, 3]: 0/5
COc1c(N2C[C@@H](F)[C@@H](C3(N)CC3)C2)c(F)c(N)c2c(=O)c(C(=O)O)cn([C@@H]3C[C@@H]3F)c12 [Example 16, 5-Amino-7-[4-(R)-(1-aminocyclopropyl)-3-(S)-fluoro-1-pyrrolidinyl]-6-fluoro-1-[2-(S)-fluoro-1-(R)-cyclopropyl]-1,4-dihydro-8-methoxy-4-oxoquinoline-3-carboxylic acid] | same result | 0.2 µg/mL (≈ 0.442 µM) | 
C[C@H]1COc2c(N3C[C@@H](F)[C@@H](C4(N)CC4)C3)c(F)cc3c(=O)c(C(=O)O)cn1c23 [Example 17, 10-[4-(R)-(1-Aminocyclopropyl)-3-(S)-fluoro-1-pyrrolidinyl]-9-fluoro-2,3-dihydro-3-(S)-methyl-7-oxo-7H-pyrido[1,2,3-de][1,4]benzoxazine-6-carboxylic acid] | same result |  | 
C[C@H]1COc2c(N3C[C@@H](F)[C@@H](C4(N)CC4)C3)c(F)cc3c(=O)c(C(=O)O)cn1c23.Cl [Example 19, 10-[4-(R)-(1-Aminocyclopropyl)-3-(S)-fluoro-1-pyrrolidinyl]-9-fluoro-2,3-dihydro-3-(S)-methyl-7-oxo-7H-pyrido[1,2,3-de][1,4]benzoxazine-6-carboxylic acid hydrochloride] |  | 0.39 µg/mL | 
C[C@H]1COc2c(N3C[C@@H](F)[C@@H](C4(N)CC4)C3)c(F)c(N)c3c(=O)c(C(=O)O)cn1c23 [Example 21, 8-Amino-10-[4-(R)-(1-aminocyclopropyl)-3-(S)-fluoro-1-pyrrolidinyl]-9-fluoro-2,3-dihydro-3-(S)-methyl-7-oxo-7H-pyrido[1,2,3]-de[1,4]benzoxazine-6-carboxylic acid] | same result | 0.39 µg/mL (≈ 0.928 µM) | 
